Literature values in patent publication US20240016170A1, “A ZINC FORTIFIED TEA COMPOSITION” (EKATERRA TEA MANUFACTURING USA LLC, priority 2020, published 2024).

Conditions: water at 25° C.

[O]=[Zn] [zinc oxide]
solubility: 0.0004 g/100 g water
